Assay results: patent US20230285570A1, “THERAPEUTICALLY USEFUL CURE-PRO MOLECULES FOR E3 LIGASE MEDIATED DEGRADATION OF PROTEINS, AND METHODS OF MAKING AND USING THEM” (CORNELL UNIVERSITY, priority 2020, published 2023)
Entries after “also recorded” stand apart in the source; their conditions may differ.

Columns and labels:
Format in all cases: cell-based
BRD4 [1] = target: T1, BRD4 (Homo sapiens, UniProt O60885); test: CURE-PRO-mediated BRD4 degradation in MCF7 cells, WES (ProteinSimple); parameters: endogenous in cells
Method: WES Simple analysis was performed on WES system (ProteinSimple-Biotechne) according to the manufacturer's instructions. Total protein concentrations of cell lysates were determined by the Pierce BCA kit (Thermo Fisher). 3 μL of 0.3 μg/μL of the protein lysate was loaded onto a 12- to 230-kDa WES assay plate (ProteinSimple) where 300 nL sample was withdrawn through a capillary, subjected to electrophoretic separation of proteins by size, and followed by the simultaneous, HRP-based detection of proteins using the Anti-Rabbit Detection Module (Proteinsimple: #DM-001). The electropherograms were checked then the automatic peak detection was manually corrected if it was required.
MCF7 cells (3×10^6) were treated for 4-24 hours continually (FIG. 72), or treated for 4 h, washed and incubated for a further 4-24 h with the compounds solubilized in DMSO. Compounds were added at 10 μM each. Cells were washed, lysed, and clarified by centrifugation. The total protein concentration was quantified by the BCA method (ThermoFisher Sciences). Standardized protein samples were electrophoresed and imaged as described in the WES Proteinsimple section above. FIG. 69 depicts the CURE-PRO-mediated BRD4 degradation for the BRD-E50 monomer, and VHL ligand, 8305.
MCF7 cells (3×10^6) were treated for 24 hours with the compounds solubilized in DMSO. CURE-PRO monomers were added at 10 μM each and the proteasomal inhibitors at 1 μM. Standardized protein samples were electrophoresed and imaged as described in the WES Proteinsimple section above. FIGS. 73 and 75 depicts the dependence of the proteasome for CURE-PRO-mediated BRD4 degradation.
MCF7 cells (3×10^6) were treated for 24 hours with the compounds solubilized in DMSO. CURE-PRO monomers were added at 10 μM. FIG. 74 depicts the CURE-PRO-mediated BRD4 degradation for the BRD-E50 monomer, and VHL ligand, 8305 combined in a 1:1 ratio after 24 h.

MV-4-11 cells = test: CellTiter-Glo cell viability, MV-4-11 cells; settings: cotreated 1:1 with each of CRBN ligands 8046, 8047 and 8066, MV-4-11, 72 h, 10 nM-100 μM
Method in brief: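 Viability by CellTiter-Glo luminescence. One protocol: 5×10^4 MV-4-11 cells, 24 h, compounds at 1 nM-100 μM each; other: 1×10^4 cells, 72 h, 10 nM-100 μM each. BRD ligands combined 1:1 with CRBN ligands; dose-response curves fitted.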

BRD3 = target: T2, BRD3 (Homo sapiens, UniProt Q15059); test: BRD protein family degradation in HCT116 cells, Western blot: BRD3; settings: 1:1 with MDM2 ligands 8310 and 8312 (each), HCT116, 24 h, 100 nM-10 μM
T2 construct: endogenous in cells; host or cells: HCT116
Method: Namalwa, Ramosm HeLa, MCF7, or HT29 HCT116 cells (2.5-3×10^6) were treated for 24 hours with the indicated compounds solubilized in DMSO. The cells were washed in ice-cold PBS and were then lysed in RIPA lysis buffer (150 mM NaCl, 5 mM EDTA, 1% NP-40, 0.5% sodium deoxycholate, 0.1% SDS, 50 mM Tris, pH 8.0.) with Roche protease inhibitor complete cocktail and phosphatase inhibitors (10 mM sodium fluoride, 10 mM sodium pyrophosphate, 1 mM sodium orthovanadate and 20 mM β-glycerophosphate). The total protein concentrations were determined by Bradford Protein Assay (Pierce) and 10-20 μg of protein was loaded onto 4-15% Tris-Glycine gradient gels (Biorad). After standard gel electrophoresis, the separated proteins were transferred to PVDF membrane by wet transfer. The immunoblots were then blocked for 1 hour in 5% skim milk in TBST or 5% BSA in TBST, according to manufacturer's instructions, before an overnight incubation at 4° C. with indicated antibodies and membranes. […] Signal was detected with ECL Western Blotting Substrate (Pierce) and X-ray film processed with a Konica SRX-101 X-ray film processor or captured by Bio-Rad's Chemidoc Imaging system. […]

BRD4 [2] = target: T1, BRD4; test: BRD protein family degradation in HCT116 cells, Western blot: BRD4; parameters: endogenous in cells
Method: Namalwa, Ramosm HeLa, MCF7, or HT29 HCT116 cells (2.5-3×10^6) were treated for 24 hours with the indicated compounds solubilized in DMSO. The cells were washed in ice-cold PBS and were then lysed in RIPA lysis buffer (150 mM NaCl, 5 mM EDTA, 1% NP-40, 0.5% sodium deoxycholate, 0.1% SDS, 50 mM Tris, pH 8.0.) with Roche protease inhibitor complete cocktail and phosphatase inhibitors (10 mM sodium fluoride, 10 mM sodium pyrophosphate, 1 mM sodium orthovanadate and 20 mM β-glycerophosphate). The total protein concentrations were determined by Bradford Protein Assay (Pierce) and 10-20 μg of protein was loaded onto 4-15% Tris-Glycine gradient gels (Biorad). After standard gel electrophoresis, the separated proteins were transferred to PVDF membrane by wet transfer. The immunoblots were then blocked for 1 hour in 5% skim milk in TBST or 5% BSA in TBST, according to manufacturer's instructions, before an overnight incubation at 4° C. with indicated antibodies and membranes. Membranes were then incubated with the appropriate horseradish peroxidase-conjugated secondary antibodies (1:5,000 dilution) for 1 h at room temperature and the bands were visualized using the Clarity Max Western ECL Substrate (Biorad) and the ChemiDoc Imaging System (Biorad). Signal was detected with ECL Western Blotting Substrate (Pierce) and X-ray film processed with a Konica SRX-101 X-ray film processor or captured by Bio-Rad's Chemidoc Imaging system.
HCT116 cells (3×10^6) were treated for 24 hours with the compounds solubilized in DMSO. Compounds were added at 100 nM-10 μM each. Standardized protein samples were electrophoresed and imaged as described in the Immunoblotting section above. FIGS. 64 and 65 depict the concentration-dependence of CURE-PRO-mediated BRD2 and BRD3 degradation using MDM2 ligands.

T2 sequence (Q15059 whole entry): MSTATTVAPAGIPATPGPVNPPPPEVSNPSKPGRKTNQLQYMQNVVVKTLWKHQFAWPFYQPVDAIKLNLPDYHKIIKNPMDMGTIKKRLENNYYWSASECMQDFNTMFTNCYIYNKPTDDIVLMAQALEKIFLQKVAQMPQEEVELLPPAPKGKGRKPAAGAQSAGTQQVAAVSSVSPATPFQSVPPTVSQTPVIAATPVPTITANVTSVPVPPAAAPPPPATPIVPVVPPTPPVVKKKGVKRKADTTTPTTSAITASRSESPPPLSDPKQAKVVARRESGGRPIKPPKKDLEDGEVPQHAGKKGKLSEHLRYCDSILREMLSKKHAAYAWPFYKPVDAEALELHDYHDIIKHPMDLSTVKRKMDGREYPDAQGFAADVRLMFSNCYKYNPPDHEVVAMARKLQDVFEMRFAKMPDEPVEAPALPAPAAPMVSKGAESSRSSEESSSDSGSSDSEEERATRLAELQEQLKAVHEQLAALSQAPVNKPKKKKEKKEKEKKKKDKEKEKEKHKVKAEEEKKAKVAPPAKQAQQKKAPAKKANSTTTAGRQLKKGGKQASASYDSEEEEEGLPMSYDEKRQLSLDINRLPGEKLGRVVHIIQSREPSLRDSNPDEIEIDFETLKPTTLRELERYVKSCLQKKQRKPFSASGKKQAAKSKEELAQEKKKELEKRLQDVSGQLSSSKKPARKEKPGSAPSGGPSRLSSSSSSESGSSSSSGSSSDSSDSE

Structure (SMILES) | BRD4 degradation with proteasome inhibitors (BRD4 [1]; 1:1 with 8305 at 10 μM, pre-incubation with MG-132 and Carfilzomib 1 μM, MCF7) | BRD4 degradation (BRD4 [1]; 1:1 with VHL ligand 8305, MCF7, 10 μM each, 4-24 h) | BRD4 degradation (BRD4 [1]; co-incubated with VHL ligand 8304, MCF7, 10 μM each) | loss of cellular viability (toxicity) versus monomers alone (MV-4-11 cells) | BRD3 degradation (BRD3) | BRD4 degradation (BRD4 [2]; 1:1 with MDM2 ligands 8310 and 8312 (each), HCT116, 24 h, 100 nM-10 μM) | selectivity of degradation among BRD2, BRD3 and BRD4 (BRD4 [2]; with MDM2 ligands 8310 and 8312, HCT116, Western blot)
CCNC(=O)C[C@@H]1N=C(c2ccc(Cl)cc2)c2cc(OCCCCC(=O)Nc3cccc(B(O)O)c3)ccc2-n2c(C)nnc21 [BRD-E20, (3-(5-(((4S)-6-(4-chlorophenyl)-4-(2-(ethylamino)-2-oxoethyl)-1-methyl-4H-benzo[f][1,2,4]triazolo[4,3-a][1,4]diazepin-8-yl)oxy)pentanamido)phenyl)boronic acid] | inhibited by the pre-incubation with MG-132 and Carfilzomib; also recorded: inhibited with the proteasome inhibitors, MG-132 and Carfilzomib | caused BRD4 degradation; also recorded: marked BRD4 degradation | failed to induce BRD4 degradation | reduced viability; also recorded: increased toxicity |  |  | 
CCNC(=O)C[C@@H]1N=C(c2ccc(Cl)cc2)c2cc(OCCOCCNC(=O)c3cccc(O)c3O)ccc2-n2c(C)nnc21 [BRD-N39, N-(2-(2-(((4S)-6-(4-chlorophenyl)-4-(2-(ethylamino)-2-oxoethyl)-1-methyl-4H-benzo[f][1,2,4]triazolo[4,3-a][1,4]diazepin-8-yl)oxy)ethoxy)ethyl)-2,3-dihydroxybenzamide] |  |  |  |  | degradation of BRD3; also recorded: Degradation is evident | caused BRD4 degradation; also recorded: Degradation is evident | some selectivity for BRD4 over BRD2 and BRD3 is noted
